Species: Rattus norvegicus
Assay: Open TG-GATES - Regimen: Single
Format: toxicity, organism-based, Sprague-Dawley
Design: regimen Single, gender Male, age 6 weeks
Details: in vivo, po, 100 mg/kg, route gavage, dose level Low; for APTT / Bas / Eos / Fbg / Hb / Ht / Lym / MCH / MCHC / MCV / Mono / Neu / PT / Plat / RBC / Ret / WBC: tissue Blood; for KIDNEY_L / KIDNEY_R / KIDNEY_TOTAL: tissue Kidney; for LIVER: tissue Liver; for A/G / ALP / ALT / AST / BUN / CRE / Ca / Cl / DBIL / GLC / IP / K / LDH / Na / PL / RALB / TBIL / TC / TG / TP / gamma-GTP: tissue Plasma

CN(C)[C@@H]1C(O)=C(C(N)=O)C(=O)[C@@]2(O)C(O)=C3C(=O)c4c(O)cccc4[C@@](C)(O)[C@H]3C[C@@H]12 [TETRACYCLINE]
TERMINAL_BW (3 h): 185.7 g | APTT (3 h): 16.7 s | Bas (3 h): 0% | Eos (3 h): 0.8% | Fbg (3 h): 197.8 mg/dL | Hb (3 h): 12.8 g/dL | Ht (3 h): 38.5% | Lym (3 h): 84.2% | MCH (3 h): 21.8 pg | MCHC (3 h): 33.2% | MCV (3 h): 65.7 fL | Mono (3 h): 6.4% | Neu (3 h): 9.2% | PT (3 h): 12.1 s | Plat (3 h): 98.5 x10_4/uL | RBC (3 h): 586.6 x10_4/ul | Ret (3 h): 9.8% | WBC (3 h): 101.6 x10_2/uL | KIDNEY_L (3 h): 0.9 g | KIDNEY_R (3 h): 0.9 g | KIDNEY_TOTAL (3 h): 1.9 g | LIVER (3 h): 8.9 g | A/G (3 h): 2.3 | ALP (3 h): 713.6 IU/L | ALT (3 h): 40 IU/L | AST (3 h): 69.4 IU/L | BUN (3 h): 12 mg/dL | CRE (3 h): 0.5 mg/dL | Ca (3 h): 11.1 mg/dL | Cl (3 h): 104 meq/L | DBIL (3 h): 0.036 mg/dL | GLC (3 h): 179.8 mg/dL | IP (3 h): 10.7 mg/dL | K (3 h): 4.9 meq/L | LDH (3 h): 84.2 IU/L | Na (3 h): 137.4 meq/L | PL (3 h): 127.8 mg/dL | RALB (3 h): 3.8 g/dL | TBIL (3 h): 0.4 mg/dL | TC (3 h): 73.8 mg/dL | TG (3 h): 38 mg/dL | TP (3 h): 5.4 g/dL | gamma-GTP (3 h): 1.2 IU/L | TERMINAL_BW (6 h): 184.5 g | APTT (6 h): 16.5 s | Bas (6 h): 0% | Eos (6 h): 0.6% | Fbg (6 h): 199.6 mg/dL | Hb (6 h): 13.2 g/dL | Ht (6 h): 39.9% | Lym (6 h): 80.2% | MCH (6 h): 21.9 pg | MCHC (6 h): 33.2% | MCV (6 h): 66 fL | Mono (6 h): 5.2% | Neu (6 h): 14.4% | PT (6 h): 12.1 s | Plat (6 h): 107 x10_4/uL | RBC (6 h): 607.2 x10_4/ul | Ret (6 h): 10.1% | WBC (6 h): 95.2 x10_2/uL | KIDNEY_L (6 h): 0.9 g | KIDNEY_R (6 h): 0.9 g | KIDNEY_TOTAL (6 h): 1.7 g | LIVER (6 h): 8.3 g | A/G (6 h): 2.2 | ALP (6 h): 880.4 IU/L | ALT (6 h): 36.2 IU/L | AST (6 h): 69.6 IU/L | BUN (6 h): 12.2 mg/dL | CRE (6 h): 0.4 mg/dL | Ca (6 h): 10.8 mg/dL | Cl (6 h): 106 meq/L | DBIL (6 h): 0.02 mg/dL | GLC (6 h): 175.6 mg/dL | IP (6 h): 10.3 mg/dL | K (6 h): 5.1 meq/L | LDH (6 h): 85.2 IU/L | Na (6 h): 137 meq/L | PL (6 h): 139 mg/dL | RALB (6 h): 3.6 g/dL | TBIL (6 h): 0.3 mg/dL | TC (6 h): 82.2 mg/dL | TG (6 h): 32.4 mg/dL | TP (6 h): 5.3 g/dL | gamma-GTP (6 h): 1.6 IU/L | TERMINAL_BW (9 h): 181.6 g | APTT (9 h): 16.5 s | Bas (9 h): 0% | Eos (9 h): 0.4% | Fbg (9 h): 210.6 mg/dL | Hb (9 h): 12.9 g/dL | Ht (9 h): 39.4% | Lym (9 h): 81.8% | MCH (9 h): 21.8 pg | MCHC (9 h): 32.8% | MCV (9 h): 66.4 fL | Mono (9 h): 5.8% | Neu (9 h): 11.6% | PT (9 h): 12.2 s | Plat (9 h): 102.3 x10_4/uL | RBC (9 h): 592.8 x10_4/ul | Ret (9 h): 9.5% | WBC (9 h): 93.6 x10_2/uL | KIDNEY_L (9 h): 0.9 g | KIDNEY_R (9 h): 0.9 g | KIDNEY_TOTAL (9 h): 1.7 g | LIVER (9 h): 7.5 g | A/G (9 h): 2.2 | ALP (9 h): 861 IU/L | ALT (9 h): 32.8 IU/L | AST (9 h): 64 IU/L | BUN (9 h): 13.2 mg/dL | CRE (9 h): 0.4 mg/dL | Ca (9 h): 10.5 mg/dL | Cl (9 h): 105.8 meq/L | DBIL (9 h): 0.022 mg/dL | GLC (9 h): 176.8 mg/dL | IP (9 h): 10.5 mg/dL | K (9 h): 5.1 meq/L | LDH (9 h): 93.8 IU/L | Na (9 h): 138.4 meq/L | PL (9 h): 126.6 mg/dL | RALB (9 h): 3.8 g/dL | TBIL (9 h): 0.3 mg/dL | TC (9 h): 73.4 mg/dL | TG (9 h): 26 mg/dL | TP (9 h): 5.5 g/dL | gamma-GTP (9 h): 1.8 IU/L | TERMINAL_BW (24 h): 196.8 g | APTT (24 h): 16.4 s | Bas (24 h): 0% | Eos (24 h): 0.5% | Fbg (24 h): 218 mg/dL | Hb (24 h): 13.5 g/dL | Ht (24 h): 41.6% | Lym (24 h): 84% | MCH (24 h): 22 pg | MCHC (24 h): 32.4% | MCV (24 h): 67.9 fL | Mono (24 h): 8.5% | Neu (24 h): 7.2% | PT (24 h): 11.9 s | Plat (24 h): 105.1 x10_4/uL | RBC (24 h): 614 x10_4/ul | Ret (24 h): 10.3% | WBC (24 h): 88.6 x10_2/uL | KIDNEY_L (24 h): 0.9 g | KIDNEY_R (24 h): 0.9 g | KIDNEY_TOTAL (24 h): 1.8 g | LIVER (24 h): 9.1 g | A/G (24 h): 2.1 | ALP (24 h): 914 IU/L | ALT (24 h): 34 IU/L | AST (24 h): 64.8 IU/L | BUN (24 h): 17.8 mg/dL | CRE (24 h): 0.5 mg/dL | Ca (24 h): 11.4 mg/dL | Cl (24 h): 104.8 meq/L | DBIL (24 h): 0 mg/dL | GLC (24 h): 188.5 mg/dL | IP (24 h): 10 mg/dL | K (24 h): 5.2 meq/L | LDH (24 h): 97.8 IU/L | Na (24 h): 140.8 meq/L | PL (24 h): 154.2 mg/dL | RALB (24 h): 3.9 g/dL | TBIL (24 h): 0.3 mg/dL | TC (24 h): 86.5 mg/dL | TG (24 h): 66.2 mg/dL | TP (24 h): 5.8 g/dL | gamma-GTP (24 h): 1 IU/L
